In PMC7961094 (The Journal of Biological Chemistry, 2021):
Read-outs that look alike come from different tables or passages of the source.

Tests used:
[1] = biological target: glutamate dehydrogenase (GDH); assay: 2,4-DNPH oxidative deamination assay with GDH; assay type: biochemical, thermophilic bacterium species; details: 0.25 μM GDH; for IC50: 5 mM L-glutamate, 2.5 mM NAD^+, brackets 95% confidence interval
Protocol: Next, we selected two reported GDH inhibitors to assess their IC50 values using the 2,4-DNPH α-KG assay. For these experiments, we held glutamate and NAD^+ at saturating concentrations of 5 mM and 2.5 mM, respectively, while varying the concentrations of inhibitors. Hexachlorophene (HCP) is a noncompetitive inhibitor of GDH that binds to the inner core of the GDH hexamer, thereby preventing the conformational changes necessary for catalytic turnover ([60]). […] Conversely, 2-Methyleneglutarate (2-MG) was selected as a nonaromatic, competitive inhibitor of GDH with respect to L-glutamate ([61]).
Lyophilized GDH was resuspended in a solution of 50 mM Tris-base buffer (pH 8.0) and […]. Each oxidative deamination reaction was carried out in a final volume of 0.5 ml. The cofactor mix was prepared with 50 mM Tris-base buffer (pH 8.0), 1 mM EDTA, 5 mM L-glutamate and 2.5 mM NAD^+ and commenced by adding 0.25 μM GDH. The reaction was allowed to proceed at 50 °C for up to 30 min. During the course of the reaction, 50 μl was withdrawn at various time points from the reaction tube and quenched in 50 μl of 10% TCA at predetermined time points and vortexed. The downstream processing steps are identical to those of the 2,4-DNPH α-KG assay.
(§1) Subsequent measurements were performing at time points conforming to those requirements. Initial velocities at each substrate concentration were fit using linear regression to generate Michaelis–Menten titration curves.
(§2) All data were plotted using GraphPad Prism 8.0 and presented as a mean ± standard deviation of three independent biological replicates, unless otherwise stated. For kinetic data, Km was determined by fitting the data to a least squares ordinary fit Michealis–Menten function, while IC50 values were obtained from fitting the data to a three-parameter log(inhibitor) versus response function. Where applicable, two-tailed t tests were performed to determine statistical significance using a p-value of 0.05.

PHD2_181-426 = PHD2_181-426 (Homo sapiens, UniProt Q9GZT9); assay: 2,4-DNPH α-KG assay with PHD2
Protocol: (§3) During the course of the reaction, 50 μl was withdrawn at various time points from the reaction tube and quenched in 50 μl of 10% TCA at predetermined time points and vortexed.
as §1, §2

PHD3 [2] = biological target: PHD3 (Homo sapiens, UniProt Q9H6Z9); assay: 2,4-DNPH α-KG assay with PHD3
Protocol: as §3, §1, §2

PHD3 [3] = details: read-out: Km (app; α-KG), cited from earlier work
PHD2 = details: read-out: Km (app; α-KG), cited from earlier work

PHD3 (Homo sapiens, UniProt Q9H6Z9), sequence (Q9H6Z9 whole entry): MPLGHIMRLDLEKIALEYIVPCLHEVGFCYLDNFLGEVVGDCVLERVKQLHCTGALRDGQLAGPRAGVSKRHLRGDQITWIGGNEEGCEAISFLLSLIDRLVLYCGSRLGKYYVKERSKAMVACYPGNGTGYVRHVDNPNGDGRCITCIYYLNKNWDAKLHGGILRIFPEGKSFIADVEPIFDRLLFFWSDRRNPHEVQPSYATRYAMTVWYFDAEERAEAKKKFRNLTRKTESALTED
PHD2_181-426, sequence (Q9GZT9 181-426): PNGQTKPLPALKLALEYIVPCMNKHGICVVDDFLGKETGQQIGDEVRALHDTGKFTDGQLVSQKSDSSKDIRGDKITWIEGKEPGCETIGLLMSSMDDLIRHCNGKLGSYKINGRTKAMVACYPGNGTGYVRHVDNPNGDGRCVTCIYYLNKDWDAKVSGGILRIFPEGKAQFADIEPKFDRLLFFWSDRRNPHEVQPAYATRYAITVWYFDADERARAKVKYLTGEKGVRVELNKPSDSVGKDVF

Question: What does the source list for `C=C(CCC(=O)O)C(=O)O` [2-MG, 2-methyleneglutaric acid, reference compound]?
Answer: IC50 [1]: 24.9 µM; IC50 ([1]; listed as 2-Methyleneglutarate (2-MG)): 24.9 µM

Question: For `[Cl-].[Cl-].[Co+2]` [CoCl2, cobalt (II) chloride, reference compound], which IC50 (PHD2_181-426) is on record?
Answer: Its IC50 is 6.4 µM.

Question: And the IC50 (PHD3 [2]; 0.5 mM α-ketoglutarate, 100 μM HIF peptide, 10 μM PHD3, brackets 95% confidence interval)?
Answer: Its IC50 is 79.3 µM.

Question: With `Oc1c(Cl)cc(Cl)c(Cl)c1Cc1c(O)c(Cl)cc(Cl)c1Cl` [HCP, Hexachlorophene, reference compound] as the compound, how does the IC50 [1] read?
Answer: The IC50 was 1.52 µM.

Question: What does the source list for `NC(=O)c1ccc[n+]([C@@H]2O[C@H](COP(=O)([O-])OP(=O)(O)OC[C@H]3O[C@@H](n4cnc5c(N)ncnc54)[C@H](O)[C@@H]3O)[C@@H](O)[C@H]2O)c1` [NAD^+, nicotinamide adenine dinucleotide]?
Answer: kcat for NAD^+ ([1]; increasing NAD^+, saturating other reagents): 4.2 ± 0.13 s⁻¹; Km ([1]; increasing NAD^+, saturating other reagents, read-out: Km for NAD^+): 517 ± 55.8 µM

Question: Which IC50 (PHD3 [2]) does the source give for `O=C(O)CNC(=O)C(=O)O` [NOG, N-oxalylglycine] here?
Answer: Its IC50 is 51.3 µM.

Question: With `N[C@@H](CCC(=O)O)C(=O)O` [glutamate, L-glutamate] as the compound, how does the kcat for glutamate ([1]; increasing L-glutamate, saturating other reagents) read?
Answer: The kcat for glutamate was 4.47 ± 0.067 s⁻¹.

Question: What about the Km ([1]; increasing L-glutamate, saturating other reagents, read-out: Km for glutamate) of the same compound?
Answer: The Km was 746 ± 58.6 µM.

Question: What does the source list for `O=C(O)CCC(=O)C(=O)O` [α-ketoglutarate]?
Answer: Km (PHD3 [3]; ref Hirsila et al. ([2])): 55 µM; Km (PHD3 [3]; ref Koivunen et al. ([51])): 12 ± 4 µM; Km (PHD3 [3]; ref Oehme et al. ([25])): 3 µM; Km (PHD2; PHD2, ref Dao et al. ([52])): 0.343 ± 0.028 µM; Km (PHD2; PHD2, ref Hirsila et al. ([2])): 60 µM; Km (PHD2; PHD2, ref Koivunen et al. ([51])): 1 ± 0.2 µM; Km (PHD2; PHD2^181–426, ref Ehrismann et al. ([11])): 55 ± 1.1 µM; Km (PHD2; PHD2^181–426, ref McNeill et al. ([10])): 25 ± 6 µM; Km (PHD2; PHD2^181–426, ref Tarhonskaya et al. ([19])): 13 ± 2 µM; kcat (α-ketoglutarate titration) (PHD2_181-426): 0.0717 ± 0.005 s⁻¹
